Molecules are shown by their SMILES.

One assay concerns Alternaria alternata. In words: Cell test on Alternaria alternata. In kind it is cell-based. The conditions noted are these: under similar conditions (2 ppm, OD at 620 nm after 5 days). How it is done: The growth of Alternaria alternata is performed on PDA medium at 20° C. under black light during 14 days. The PDA medium is prepared by mixing 39 grams of PDA (Merck) in 1 liter of demineralized water.
The medium is sterilized by autoclave 15 minutes at 121° C. After 14 days of growth, the spores of Alternaria alternata are recovered in sterilized water and the concentration of spores adjusted at 10^6 spores per ml.
The compounds is solubilized in DMSO and added to sterile liquid glucose/mycopeptone medium (14.6 g/l of D-glucose, 7.1 g/l of mycological peptone (Oxoid) and 1.4 g/l of yeast extract (Merck)) at a concentration of 2 ppm. The medium is inoculated with the spore suspension at a concentration of 10^5 spores per ml.
The efficacy of the compounds is assessed by OD measurement at 620 nm after 5 days at 20° C. in comparison with a control.

Another assay deals with Pyrenophora teres. The assay can be described thus: In vivo test on Pyrenophora teres (barley net blotch). The note with it: barley plants, preventive spray, dose of 330 ppm, grading 12 days after contamination. How it is done:
The active ingredients tested are prepared by homogenization in a mixture of acetone/tween/DMSO, then diluted with water to obtain the desired active material concentration.
Barley plants (Express variety), sown on a 50/50 peat soil-pozzolana substrate in starter cups and grown at 12° C., are treated at the 1-leaf stage (10 cm tall) by spraying with the active ingredient prepared as described above. Plants, used as controls, are treated with the mixture of acetone/tween/DMSO/water not containing the active material.
After 24 hours, the plants are contaminated by spraying them with an aqueous suspension of Pyrenophora teres spores (12,000 spores per ml). The spores are collected from a 12-day-old culture. The contaminated barley plants are incubated for 24 hours at about 20° C. and at 100% relative humidity, and then for 12 days at 80% relative humidity.
Grading is carried out 12 days after the contamination, in comparison with the control plants.

In the case of `O=C(NOCc1ncc(C(F)(F)F)cc1Cl)c1c(Cl)cccc1Cl` [2,6-dichloro-N-{[3-chloro-5-(trifluoromethyl)pyridin-2-yl]methoxy}benzamide], the activity result in the assay on Alternaria alternata was “did not show any activity”.
Still for that read-out and setting: the entry for `O=C(NCCc1ccccn1)c1nccc(-n2ccnc2)c1O` [3-hydroxy-4-(1H-imidazol-1-yl)-N-(2-pyridin-2-ylethyl)pyridine-2-carboxamide] is “did not show any activity”.
As to `Cc1ccsc1C(=O)NOCc1ncc(C(F)(F)F)cc1Cl` [Compound C-1, N-{[3-chloro-5-(trifluoromethyl)pyridin-2-yl]methoxy}-3-methylthiophene-2-carboxamide], in the assay with Pyrenophora teres, the protection result is listed as “at least 70%”.
Take `O=C(NOCc1ncc(C(F)(F)F)cc1Cl)c1c(F)cccc1F` [N-{[3-chloro-5-(trifluoromethyl)pyridin-2-yl]methoxy}-2,6-difluorobenzamide]: in the assay with Alternaria alternata, the activity entry is reported as “did not show any activity”.

These data come from patent US20090209589A1, “N-[(PYRIDIN-2-YL) METHOXY] HETROCYCLYL CARBOXAMIDE DERIVATIVES AND RELATED COMPOUNDS AS FUNGICIDES” (Bayer Cropscience SA, priority 2006, published 2009).
